# Measurements published in patent publication US10399972B2, “Tricyclic compounds as inhibitors of mutant IDH enzymes” (Merck Sharp & Dohme Corp., priority 2015, dated 2019).
# Target: R132H mutant IDH1 enzyme (Homo sapiens (Human), UniProt O75874, R132H)
# Assay: R132H IDH1 Enzymatic Assay
# Assay type: biochemical
# Details: 1.5 nM final, 30 min preincubation, 60 min reaction, Kinase-GLO luminescence
# Description: R132H IDH1 Enzymatic Assay
# Each test compound (10 mM stock in DMSO) is diluted in DMSO to make a 10-point, 3-fold dilution series. 125 nL of each dilution or DMSO alone is dispensed to a 384-well Greiner Lumitrac 200 assay plate using an Echo® Liquid Handler. To each well of the plate is added 20 uL of enzyme in assay buffer or assay buffer alone. Assay buffer consists of 50 mM sodium phosphate, pH 7.0, 50 mM magnesium chloride, 50 mM sodium chloride, and 0.01% (w/v) bovine serum albumin. When present, the R132H mutant IDH1 enzyme is at a working concentration of 1.875 nM (final concentration in assay of 1.5 nM). The assay plate is allowed to incubate for 30 minutes at room temperature and 5 uL of 5× substrate mixture (2.5 uM nicotinamide adenine dinucleotide phosphate, 100 uM adenosine diphosphate, 7.5 mM glyceraldehyde-3-phosphate, 7.5 ug/mL of spinach glyceraldehyde-3-phosphate dehydrogenase, 25 nM phosphoglycerate kinase, and 5 mM alpha-ketoglutarate in assay buffer) is added to all wells. The reaction plate is incubated for 60 minutes followed by addition of 25 uL of Promega Kinase-GLO reagent to all wells and 10-minute incubation.
# Luminescence is measured using a PerkinElmer Envision plate reader. The percent activity of each dilution is determined as the ratio of background corrected signal to the background corrected signal of wells receiving only DMSO. IC50 values are determined by fitting percent activity data to a four-parameter logistic dose response equation. The IC50 values of the exemplified compounds are included in Table 8.
# Sequence of R132H mutant IDH1 enzyme (O75874 whole entry R132H): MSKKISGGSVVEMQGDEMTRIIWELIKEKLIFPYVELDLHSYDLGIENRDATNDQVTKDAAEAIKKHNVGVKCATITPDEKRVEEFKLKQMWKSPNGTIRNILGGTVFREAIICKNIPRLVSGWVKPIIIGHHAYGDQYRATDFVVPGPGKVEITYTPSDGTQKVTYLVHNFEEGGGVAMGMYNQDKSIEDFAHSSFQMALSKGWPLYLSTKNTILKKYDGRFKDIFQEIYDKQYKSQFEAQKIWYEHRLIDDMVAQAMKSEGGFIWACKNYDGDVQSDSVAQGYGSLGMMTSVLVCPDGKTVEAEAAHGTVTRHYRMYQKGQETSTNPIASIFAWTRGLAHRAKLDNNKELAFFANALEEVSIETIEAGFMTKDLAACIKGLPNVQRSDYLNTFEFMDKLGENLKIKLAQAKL
row,IC50 [nM],SMILES
1,18.3,"Cc1cc2c(cc1N1C[C@@H]3CC[C@H]1CO3)N(C(=O)[C@H]1CC[C@H](OC(C)C)CC1)Cc1cccnc1N2 [Example 58, (trans-4-isopropoxycyclohexyl){9-methyl-8-[(1S,4S)-2-oxa-5-azabicyclo[2.2.2]oct-5-yl]-5,11-dihydro-6H-pyrido[2,3-b][1,5]benzodiazepin-6-yl}methanone]"
2,7.2,"Cn1nccc1-c1cc2c(cc1F)Nc1ncccc1CN2C(=O)C1CCN(CC(F)(F)F)CC1 [Example 53, (9-fluoro-8-(1-methyl-1H-pyrazol-5-yl)-5,11-dihydro-6H-benzo[b]pyrido[2,3-e][1,4]diazepin-6-yl)(1-(2,2,2-trifluoroethyl)piperidin-4-yl)methanone]"
3,30,"CC(C)O[C@H]1CC[C@H](C(=O)N2Cc3cc(Cl)cnc3Nc3ccc(N4C[C@@H]5CC[C@H]4CO5)cc32)CC1 [Example 71, (8-((1S,4S)-2-Oxa-5-azabicyclo[2.2.2]octan-5-yl)-3-chloro-5,11-dihydro-6H-benzo[b]pyrido[2,3-e][1,4]diazepin-6-yl)(trans-4-isopropoxycyclohexyl)methanone]"
4,215,"COc1ccc2c(c1)N(C(=O)C1CCN(CC(F)(F)F)CC1)C(C)c1cccnc1N2 (centres unmarked) [Example 67, (8-Methoxy-5-methyl-5,11-dihydro-6H-benzo[b]pyrido[2,3-e][1,4]diazepin-6-yl)(1-(2,2,2-trifluoroethyl)piperidin-4-yl)methanone]"
5,21.7,"O=C(C1CCN(CC(F)(F)F)CC1)N1Cc2cc(F)cnc2Nc2ccc(N3CC4CCC3CO4)cc21 (single isomer, unassigned) [Example 9, (8-(2-oxa-5-azabicyclo[2.2.2]octan-5-yl)-3-fluoro-5,11-dihydro-6H-benzo[b]pyrido[2,3-e][1,4]diazepin-6-yl)(1-(2,2,2-trifluoroethyl)piperidin-4-yl)methanone]"
6,10,"CC(C)O[C@H]1CC[C@H](C(=O)N2Cc3cc(F)cnc3Nc3ccc(N4C[C@H]5CC[C@@H]4CO5)cc32)OC1 [Example 48, (8-((1R,4R)-2-oxa-5-azabicyclo[2.2.2]octan-5-yl)-3-fluoro-5,11-dihydro-6H-benzo[b]pyrido[2,3-e][1,4]diazepin-6-yl)((2R,5S)-5-isopropoxytetrahydro-2H-pyran-2-yl)methanone]"
7,4.5,"O=C(C1CCN(CC(F)(F)F)CC1)N1Cc2cc(F)cnc2Nc2cc(F)c(N3CC4(CCCOC4)C3)cc21 [Example 21, (3,9-difluoro-8-(6-oxa-2-azaspiro[3.5]nonan-2-yl)-5,11-dihydro-6H-benzo[b]pyrido[2,3-e][1,4]diazepin-6-yl)(1-(2,2,2-trifluoroethyl)piperidin-4-yl)methanone]"
8,5.6,"O=C(C1CCN(CC(F)(F)F)CC1)N1Cc2cc(F)cnc2Nc2ccc([C@H]3COCCO3)cc21 [Example 54, (S)-(8-(1,4-Dioxan-2-yl)-3-fluoro-5,11-dihydro-6H-benzo[b]pyrido[2,3-e][1,4]diazepin-6-yl)(1-(2,2,2-trifluoroethyl)piperidin-4-yl)methanone]"
9,58.7,"Cc1c(N2C[C@@H]3CC[C@H]2CO3)ccc2c1N(C(=O)[C@H]1CC[C@H](OC(C)C)CC1)Cc1cccnc1N2 [Example 59, (trans-4-isopropoxycyclohexyl){7-methyl-8-[(1S,4S)-2-oxa-5-azabicyclo[2.2.2]oct-5-yl]-5,11-dihydro-6H-pyrido[2,3-b][1,5]benzodiazepin-6-yl}methanone]"
10,35.2,"CC(C)O[C@H]1CC[C@H](C(=O)N2Cc3cccnc3Nc3cc(F)c(N4CC5CCC4CO5)cc32)CC1 (stereo partly drawn) [Example 62, [9-fluoro-8-(2-oxa-5-azabicyclo[2.2.2]oct-5-yl)-5,11-dihydro-6H-pyrido[2,3-b][1,5]benzodiazepin-6-yl](trans-4-isopropoxycyclohexyl)methanone]"
11,87,"CCS(=O)(=O)N1CCC(C(=O)N2Cc3cc(F)cnc3Nc3ccc(N4CC5CCC4CO5)cc32)CC1 (centres unmarked) [Example 43, (8-(2-oxa-5-azabicyclo[2.2.2]octan-5-yl)-3-fluoro-5,11-dihydro-6H-benzo[b]pyrido[2,3-e][1,4]diazepin-6-yl)(1-(ethylsulfonyl)piperidin-4-yl)methanone]"
12,5750,"CC(C)O[C@H]1CC[C@H](C(=O)N2Cc3cc(S(C)(=O)=O)cnc3Nc3ccc(N4C[C@@H]5CC[C@H]4CO5)cc32)CC1 [Example 70, (8-((1S,4S)-2-oxa-5-azabicyclo[2.2.2]octan-5-yl)-3-(methylsulfonyl)-5,11-dihydro-6H-benzo[b]pyrido[2,3-e][1,4]diazepin-6-yl)(trans-4-isopropoxycyclohexyl)methanone]"
13,5.6,"CC(C)O[C@H]1CC[C@H](C(=O)N2Cc3cc(F)cnc3Nc3cc(F)c(N4C[C@@H]5C[C@H]4CO5)cc32)CC1 [Example 24, {3,9-difluoro-8-[(1S,4S)-2-oxa-5-azabicyclo[2.2.1]hept-5-yl]-5,11-dihydro-6H-pyrido[2,3-b][1,5]benzodiazepin-6-yl}[trans-4-(propan-2-yloxy)cyclohexyl]methanone]"
14,18.5,"O=C(C1CCN(CC(F)(F)F)CC1)N1Cc2cc(F)cnc2Nc2ccc(N3[C@@H]4CO[C@H]5[C@@H]4OC[C@H]53)cc21 [Example 7, (3-fluoro-8-((3R,3aR,6R,6aR)-hexahydro-3,6-epiminofuro[3,2-b]furan-7-yl)-5,11-dihydro-6H-benzo[b]pyrido[2,3-e][1,4]diazepin-6-yl)(1-(2,2,2-trifluoroethyl)piperidin-4-yl)methanone]"
15,17.9,"CC(C)O[C@H]1CC[C@H](C(=O)N2Cc3cc(F)cnc3Nc3cc(F)c(N4C[C@@H]5C[C@H]4CO5)cc32)OC1 [Example 46, (8-((1S,4S)-2-oxa-5-azabicyclo[2.2.1]heptan-5-yl)-3,9-difluoro-5,11-dihydro-6H-benzo[b]pyrido[2,3-e][1,4]diazepin-6-yl)((2R,5S)-5-isopropoxytetrahydro-2H-pyran-2-yl)methanone]"
16,3.6,"O=C(C1CCN(CC(F)(F)F)CC1)N1Cc2cc(F)cnc2Nc2cc(F)c(-c3ccn[nH]3)cc21 [Example 51, (3,9-difluoro-8-(1H-pyrazol-5-yl)-5,11-dihydro-6H-benzo[b]pyrido[2,3-e][1,4]diazepin-6-yl)(1-(2,2,2-trifluoroethyl)piperidin-4-yl)methanone]"
17,25.5,"CC(C)O[C@H]1CC[C@H](C(=O)N2Cc3cc(F)cnc3Nc3ccc(N4CC5(CCCOC5)C4)cc32)OC1 [Example 40, (3-fluoro-8-(6-oxa-2-azaspiro[3.5]nonan-2-yl)-5,11-dihydro-6H-benzo[b]pyrido[2,3-e][1,4]diazepin-6-yl)((2R,5S)-5-isopropoxytetrahydro-2H-pyran-2-yl)methanone]"
18,18.1,"O=C(C1CCN(CC(F)(F)F)CC1)N1Cc2cccnc2Nc2cc(F)c([C@@H]3COCCO3)cc21 [Example 56, (R)-(8-(1,4-Dioxan-2-yl)-9-fluoro-5,11-dihydro-6H-benzo[b]pyrido[2,3-e][1,4]diazepin-6-yl)(1-(2,2,2-trifluoroethyl)piperidin-4-yl)methanone]"
19,27.5,"O=C(C1CCN(CC(F)(F)F)CC1)N1Cc2cccnc2Nc2cc(F)c(N3C[C@@H]4C[C@H]3CO4)cc21 [Example 27, (8-((1S,4S)-2-oxa-5-azabicyclo[2.2.1]heptan-5-yl)-9-fluoro-5,11-dihydro-6H-benzo[b]pyrido[2,3-e][1,4]diazepin-6-yl)(1-(2,2,2-trifluoroethyl)piperidin-4-yl)methanone]"
20,5.7,"Cn1cc(-c2cc3c(cc2F)Nc2ncccc2CN3C(=O)C2CCN(CC(F)(F)F)CC2)cn1 [Example 52, (9-Fluoro-8-(1-methyl-1H-pyrazol-4-yl)-5,11-dihydro-6H-benzo[b]pyrido[2,3-e][1,4]diazepin-6-yl)(1-(2,2,2-trifluoroethyl)piperidin-4-yl)methanone]"
21,28.4,"CC(C)O[C@H]1CC[C@H](C(=O)N2Cc3cc(F)cnc3Nc3ccc(N4[C@@H]5CO[C@H]6[C@@H]5OC[C@H]64)cc32)CC1 [Example 17, (3-fluoro-8-((3R,3aR,6R,6aR)-hexahydro-3,6-epiminofuro[3,2-b]furan-7-yl)-5,11-dihydro-6H-benzo[b]pyrido[2,3-e][1,4]diazepin-6-yl)(trans-4-isopropoxycyclohexyl)methanone]"
22,9.9,"O=C(C1CCN(CC(F)(F)F)CC1)N1Cc2cc(F)cnc2Nc2cc(F)c(N3CC4CCC3CO4)cc21 (centres unmarked) [Example 29, (8-(2-oxa-5-azabicyclo[2.2.2]octan-5-yl)-3,9-difluoro-5,11-dihydro-6H-benzo[b]pyrido[2,3-e][1,4]diazepin-6-yl)(1-(2,2,2-trifluoroethyl)piperidin-4-yl)methanone]"
23,18.1,"O=C(C1CCN(CC(F)(F)F)CC1)N1Cc2cc(F)cnc2Nc2cc(F)c(N3C[C@@H]4CC[C@H]3CO4)cc21 [Example 32, (8-((1S,4S)-2-oxa-5-azabicyclo[2.2.2]octan-5-yl)-3,9-difluoro-5,11-dihydro-6H-benzo[b]pyrido[2,3-e][1,4]diazepin-6-yl)(1-(2,2,2-trifluoroethyl)piperidin-4-yl)methanone]"
